Measurements from patent US12478624B2, “Heterocyclic derivatives, pharmaceutical compositions and their use in the treatment or amelioration of cancer” (Tolremo Therapeutics AG, priority 2019, dated 2025).

Experiments:
CBP Bromodomain = target: T1, CBP Bromodomain (Homo sapiens, UniProt Q92793); assay: Assay 3: CBP bromodomain binding assay (TR-FRET)
T1 construct: purchased Cayman chemicals 600850
Method: Assay 3 CBP Bromodomain Binding Assay (TR-FRET)
Compounds solutions of 10 mM in DMSO were pre-diluted in DSMO to 25× stock solutions in DMSO. These were then diluted down to 4× in assay buffer. A dilution series in assay buffer was performed keeping the DMSO concentration stable. 5 μl compound in assay buffer was transferred into the assay plate (provided by assay kit) and the TR-FRET assay Cayman chemicals; 600850) was performed using the manufactor's instructions. After 1 hour incubation at room temperature in the darks, assay plates were read in a Tecan M1000 plate reader or a Tecan Spaks reader using the TR-FRET mode (top read; excitation 340 nm bandwidth […]; emission 620 nm bandwidth […]; gain optimal determined for the first well, number of flashes: 5; flash frequency 100 Hz; integration time: 500 μs, lag time: 100 μs, room temperature). The TR-FRET ratio was calculated by deviding 670 nm emission by 620 nm emission. Values were log transformed and non-linear regression with variable slope (4 parameters) was used to fit values to a dose-response curve to evaluate EC50 values.

OPM-2 = assay: Assay 2: multiple myeloma cellular efficacy, PrestoBlue cell proliferation/survival; format: cell-based; details: Homo sapiens, 96 h, OPM-2 cells, 4 days
Method in brief: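 Cells seeded at 10000/well and exposed to a compound dose range or vehicle for 4 days, then stained with PrestoBlue for 2 h at 37 °C. Fluorescence was background-subtracted and normalized to vehicle; EC50 came from a four-parameter variable-slope fit against log concentration.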

A375 cells = assay: Assay 1: A375 cells treated with S1152, S1008 and compound, immunofluorescence (sc-365823) signal; format: cell-based; details: 1 μM S1152 + 0.5 μM S1008, one day
Method in brief: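 A375 cells treated one day with 1 μM S1152, 0.5 μM S1008 and compound dose ranges in DMEM/10% FCS, then fixed, permeabilised and immunostained. Green signal normalised to nuclear counterstain (ethidium-type or DAPI), log ratio fitted by four-parameter regression for EC50.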

T1 sequence (Q92793 1085-1192 limits assumed): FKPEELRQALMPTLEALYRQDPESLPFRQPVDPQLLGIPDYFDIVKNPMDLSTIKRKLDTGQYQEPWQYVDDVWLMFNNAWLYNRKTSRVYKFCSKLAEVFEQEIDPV

CC(=O)N1C[C@H](c2nc(Nc3cncc(C)c3)cc(-c3cccnc3)n2)CC[C@@H]1C [Compound 00009]
EC50 (CBP Bromodomain): < 200 nM | EC50 (OPM-2): 200 to 1000 nM | EC50 (A375 cells): < 200 nM
